Holding throughout (type): biochemical
The target in one test is T1, Caspase 3 (Homo sapiens, UniProt P42574).
T1 sequence (P42574 29-175 limits assumed): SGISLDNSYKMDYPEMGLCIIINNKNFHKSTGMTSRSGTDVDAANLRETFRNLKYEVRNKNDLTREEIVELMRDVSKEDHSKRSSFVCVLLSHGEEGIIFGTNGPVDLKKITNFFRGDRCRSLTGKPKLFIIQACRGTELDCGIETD
T1 sequence (P42574 176-277 limits assumed): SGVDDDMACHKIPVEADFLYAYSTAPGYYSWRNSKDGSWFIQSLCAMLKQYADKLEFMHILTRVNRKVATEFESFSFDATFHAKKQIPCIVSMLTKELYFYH
Put plainly: Blots of full-length huntingtin (23Q & 148Q) treated with Caspase 3 plus inhibitor. Conditions: for Proteolysis of Htt at amino acid 513 (caspase-3 site): 1-100 nM; for Inhibition of Caspase 3 cleavage of full-length huntingtin (blot): 23Q & 148Q, at 0.1 μM, 1.0 μM and 10 μM; for Blocking the cleavage of Htt at amino acid 513 mediated by caspase-3: conclusion.

Another test addresses T2, caspase-8 (Homo sapiens, UniProt Q14790).
T2 construct: gift: Guy Salvesen's laboratory, Burnham Institute (La Jolla, Calif.)
Put plainly: Irreversible inhibitor kinetic assay (progress curve), caspase-8, substrate Ac-DEVD-AMC. As to conditions: casp-8; duplicate, SD included. From the text: (§1) Caspases-3, -6, -7, -8, and -9 were provided by Guy Salvesen's laboratory at the Burnham Institute (La Jolla, Calif.). Caspase-1 was purchased from EMD Biosciences (San Diego, Calif.) and Caspase-2 was purchased from Biomol International (Plymouth Meeting, Pa.). Caspase substrates Ac-DEVD-AMC, Ac-VDVAD-AFC, and Ac-LEHD-AFC were purchased from EMD Biosciences (San Diego, Calif.) and Ac-VDVAD-AMC was purchased from Biomol International (Plymouth Meeting, Pa.). The proteolytic cleavage of N-acyl aminocoumarins by caspases was conducted in Dynatech Microfluor fluorescence 96-well microtiter plates, and readings were taken on a Molecular Devices Spectra Max Gemini XS instrument. The excitation wavelength was 370 nm and the emission wavelength was 455 nm for AMCA substrates, the excitation wavelength was 355 nm and the emission wavelength was 450 nm for peptidyl AMC substrates, and the excitation wavelength was 430 nm and the emission wavelength was 535 nm for peptidyl AFC substrates.
(§2) The kinact/Ki for inhibitors were determined under pseudo-first order conditions using the progress curve method (Eckici et al. (2006) J. Med. Chem., 49: 5728-5749; Bieth (1995) Meth. Enzymol., 248: 59-84). Assay wells contained a mixture of inhibitor and AMC or AFC substrate in buffer. Aliquots of caspase were added to each well to initiate the assay. Hydrolysis of the AMC or AFC substrate was monitored fluorometrically for 45 min. To determine the inhibition parameters, time points for which the control ([I]=0) was linear were used. For each inhibitor, a kobs was calculated for at least four different concentrations of inhibitors via a nonlinear regression of the data according to the equation P=(vi/kobs)[1−exp(−kobst) (where product formation=P, […], and the first-order rate constant=kobs). If kobs varied linearly with [I], then the association constant kass was determined by linear regression analysis using kobs=(kass[I])/(1+[S]/Km) where [S] is the concentration of the substrate. […] Inhibition was measured in duplicate and the average of is reported. […]

A further test deals with T3, caspase-2 (Homo sapiens, UniProt P42575).
T3 sequence (P42575 170-325 limits assumed): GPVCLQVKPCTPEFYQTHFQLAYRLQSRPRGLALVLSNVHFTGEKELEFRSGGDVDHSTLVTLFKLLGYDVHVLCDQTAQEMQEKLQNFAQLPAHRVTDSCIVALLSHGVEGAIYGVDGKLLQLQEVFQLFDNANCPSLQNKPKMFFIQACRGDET
T3 sequence (P42575 348-452 limits assumed): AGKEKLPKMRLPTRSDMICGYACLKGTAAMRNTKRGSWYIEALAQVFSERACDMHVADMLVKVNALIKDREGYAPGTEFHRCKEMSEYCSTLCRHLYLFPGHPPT
Nature of the test: Irreversible inhibitor kinetic assay (progress curve), caspase-2, substrate Ac-VDVAD-AMC. As to conditions: casp-2; duplicate, SD included.
Text: as §1, §2

T2 sequence (Q14790 217-374 limits assumed): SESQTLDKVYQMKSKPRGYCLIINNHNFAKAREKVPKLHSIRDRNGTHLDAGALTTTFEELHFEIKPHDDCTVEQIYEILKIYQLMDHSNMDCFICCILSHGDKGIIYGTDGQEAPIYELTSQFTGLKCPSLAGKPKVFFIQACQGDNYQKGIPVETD
T2 sequence (Q14790 385-479 limits assumed): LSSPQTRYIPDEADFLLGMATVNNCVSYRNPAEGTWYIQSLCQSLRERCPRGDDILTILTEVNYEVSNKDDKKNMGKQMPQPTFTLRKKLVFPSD

For `C[C@@](NC(=O)CCCC(=O)O)(c1cn([C@@H](CC(=O)O)C(=O)COc2c(F)c(F)cc(F)c2F)nn1)C1CCCCC1` [MJL-002i], at Caspase 3, the “Proteolysis of Htt at amino acid 513 (caspase-3 site)” value (from here on “Proteolysis of Htt”) is listed as “blocked”, the “Inhibition of Caspase 3 cleavage of full-length huntingtin (blot)” value (“Inhibition” for short) is listed as “inhibition” and the “Blocking the cleavage of Htt at amino acid 513 mediated by caspase-3” value (“Blocking the cleavage of Htt” for short) is reported as “affective at blocking”. Further, the kinact/Ki on caspase-8 is reported as 30,650 ± 1,950 s^−1/M^−1. The “kass (kinact/Ki, footnote a)” value on caspase-2 came to 2.0 ± 0.1 s^−1/M^−1.
`C[C@@](NS(=O)(=O)Cc1ccccc1)(c1cn([C@@H](CC(=O)O)C(=O)COc2c(F)c(F)cc(F)c2F)nn1)C1CCCCC1` [MJL-001i]: on Caspase 3, the “Proteolysis of Htt” value is recorded as “blocked”, the “Inhibition” value is listed as “inhibition” and the “Blocking the cleavage of Htt” value is “affective at blocking”. On caspase-8, the kinact/Ki is listed as 82,850 ± 1,150 s^−1/M^−1. Also, the “kass (kinact/Ki, footnote a)” value on caspase-2 came out at 33.0 ± 0.5 s^−1/M^−1.
Take `C[C@@](NC(=O)Cc1ccccc1)(c1cn([C@@H](CC(=O)O)C(=O)COc2c(F)c(F)cc(F)c2F)nn1)C1CCCCC1` [MJL-003i]: on Caspase 3, the “Proteolysis of Htt” value is reported as “blocked”, the “Inhibition” value is on record as “inhibition” and the “Blocking the cleavage of Htt” value is “affective at blocking”. In addition, the kinact/Ki on caspase-8 is 60,000 ± 2,800 s^−1/M^−1. In addition, the “kass (kinact/Ki, footnote a)” value at caspase-2 was 6.90 ± 0.3 s^−1/M^−1.
